Results: patent US20230092769A1 (SHANGHAI BENEMAE PHARMACEUTICAL CORPORATION, priority 2020, published 2023)
Values joined by “and” are separate entries in the source; they are usually repeats but may differ in a detail not shown here. Equal entries are not always repeated.

How the values were obtained:
Type in all cases: in vivo
[1] = test system: STZ-induced diabetic C57BL/6 mice; test: Blood glucose after single dosing in STZ-induced diabetic C57BL/6 mice (Example 2); details: for blood glucose 15 min / blood glucose 30 min / blood glucose 60 min / blood glucose 120 min / blood glucose 180 min / blood glucose 240 min / AUC(0-120 min) of blood glucose / blood glucose 0 min: single s.c. dose; for blood glucose 0 min: pre-dose
Method: Animals: Male C57BL/6 mice (n=70) were purchased from Shanghai Jihui Laboratory Animal Care Co., Ltd. Upon arrival, the mice were housed in an animal facility at Shanghai University of Medicine & Health Sciences, under constant temperature (20-24° C.) and humidity (40-70%). Housing was provided at 12:12-hour light-dark cycle.
Active agents: Insulin glargine was obtained from Sanofi and stored at a temperature of 2-8° C. Beinaglutide having the sequence of […](SEQ ID NO: 1) was obtained from Benemae (beinaglutide injection, 2 mg/mL) and stored at 2-8° C.
(§1) After one-week acclimation, the mice were fed with high fat diet with 60 kcal % fat (D12492, Research Diets) for 3 weeks before STZ injection. Diabetic model was induced with 5 consecutive days of multiple low-dose STZ injection (50 mg/kg, intraperitoneally; i.p.). During modeling period, the mice were fasted for 4 hours before STZ treatment each day. The STZ solution (5 mg/ml) was freshly prepared in 0.1 M sodium citrate buffer (pH 4.5) before use and injected within 10 minutes of preparation. Seven days later, the mice with non-fasted blood glucose between 16.7 mM and 27.7 mM were selected and randomized into different groups by blood glucose level and body weight. At 9 am (T=0 minute) of Day 1, the mice were subcutaneously administrated with vehicle, insulin glargine, beinaglutide, or a mixture of insulin glargine and beinaglutide, which were mixed immediately before injection (Table 3). After first injection, tail blood glucose levels were measured at various intervals after injection, at 15 minutes, 30 minutes, 60 minutes, 120 minutes, 180 minutes, and 240 minutes, respectively. Subsequently, the mice of four groups (No. 1, No. 2, No. 4, and No. 6) continued to receive multiple dosing for 4 weeks. Body weight was measured twice per week. On day 28, after blood glucose measurement, the mice were fasted for 6 hours from 9 am, followed by an oral glucose tolerance test (glucose solution: 1 g/kg, 10 ml/kg). The blood glucose was monitored at 0 minute (pre-glucose loading), 15 minutes, 30 minutes, 60 minutes and 120 minutes after glucose loading.

[2] = test system: STZ-induced diabetic C57BL/6 mice; test: Fasting blood glucose on Day 28 after 6 hours fasting, STZ-induced diabetic C57BL/6 mice; details: Day 28, 6 hours fasting, IGlar 5 U/kg multiple dosing
Method: as §1, with “Subsequently, the mice of four groups (No. 1, No. 2, No. 4, and No. 6) continued to receive multiple dosing for 4 weeks.” left out, “On day 28, after blood glucose measurement, the mice were fasted for 6 hours from 9 am, followed by an oral glucose tolerance test (glucose solution: 1 g/kg, 10 ml/kg).” left out
On Day 28, the fasting blood glucose was measured after 6 hours fasting.

[3] = test system: STZ-induced diabetic C57BL/6 mice; test: Oral glucose tolerance test (OGTT) on Day 28, STZ-induced diabetic C57BL/6 mice; set-up: OGTT blood glucose AUC: unit: mM·min
Method: The mice fasted for about 6 hours were orally administrated with glucose solution (1 g/kg). Blood glucose was measured at indicated time points.
as §1

[4] = Body weight change during 4-week multiple dosing in STZ-induced diabetic C57BL/6 mice; details: for body weight change Day 0 / body weight change Day 4 / body weight change Day 7 / body weight change Day 8 / body weight change Day 10 / body weight change Day 12 / body weight change Day 14 / body weight change Day 16 / body weight change Day 18 / body weight change Day 20 / body weight change Day 22 / body weight change Day 24 / body weight change Day 26 / body weight change Day 28: IGlar 5 U/kg s.c., 1st week bid, 2nd to 4th week tid; for body weight change Day 0: baseline
Method: as §1

[5] = Insulin glargine 5 U/kg, group MEAN, n=6
[6] = Insulin glargine 5 U/kg, group MEAN, n=6, listed as IGlar
[7] = Insulin glargine 5 U/kg, individual animal
[8] = Insulin glargine 10 U/kg, group MEAN, n=6
[9] = Insulin glargine 10 U/kg, group MEAN, n=6, listed as IGlar
[10] = Insulin glargine 10 U/kg, individual animal

Substance: insulin glargine
- blood glucose 15 min [1, 5]: 25.35 mM
- blood glucose 30 min [1, 5]: 16.95 mM
- blood glucose 60 min [1, 5]: 6.07 mM
- blood glucose 120 min [1, 5]: 7.02 mM
- blood glucose 180 min [1, 5]: 11.80 mM
- blood glucose 240 min [1, 5]: 18.83 mM
- AUC(0-120 min) of blood glucose ([1]; Insulin glargine 5 U/kg, group MEAN, n=6, in mM·min (unit assumed)): 2864
- AUC(0-120 min) of blood glucose [1, 6]: significant reduction of blood glucose
- blood glucose 60 min [1, 6]: 6.07 ± 0.43 mM
- blood glucose 15 min [1, 7]: 23.4 mM and 25.7 mM and 26.6 mM and 24.1 mM and 26.3 mM and 26 mM
- blood glucose 30 min [1, 7]: 19.7 mM and 8.7 mM and 17.9 mM and 16.6 mM and 21.2 mM and 17.6 mM
- blood glucose 60 min [1, 7]: 6.4 mM and 6.2 mM and 5.9 mM (2×) and 5.4 mM and 6.6 mM
- blood glucose 120 min [1, 7]: 5.6 mM and 7.5 mM and 12.2 mM and 4.4 mM and 7.8 mM and 4.6 mM
- blood glucose 180 min [1, 7]: 10.8 mM and 14.1 mM and 17.2 mM and 8.9 mM and 11.5 mM and 8.3 mM
- blood glucose 240 min [1, 7]: 18.8 mM and 23.2 mM and 23.5 mM and 16.7 mM and 17.7 mM and 13.1 mM
- AUC(0-120 min) of blood glucose ([1]; Insulin glargine 5 U/kg, individual animal, in mM·min (unit assumed)): 2864 and 3072 and 3731 and 2489 and 3047 and 2409
- blood glucose 0 min [1, 5]: 27.55 mM
- blood glucose 0 min [1, 7]: 31.1 mM and 29.3 mM and 25.9 mM and 28.3 mM and 25.3 mM and 25.4 mM
- blood glucose 15 min [1, 8]: 26.68 mM
- blood glucose 30 min [1, 8]: 14.68 mM
- blood glucose 60 min [1, 8]: 7.65 mM
- blood glucose 120 min [1, 8]: 5.50 mM
- blood glucose 180 min [1, 8]: 9.95 mM
- blood glucose 240 min [1, 8]: 20.18 mM
- AUC(0-120 min) of blood glucose ([1]; Insulin glargine 10 U/kg, group MEAN, n=6, in mM·min (unit assumed)): 3986
- AUC(0-120 min) of blood glucose [1, 9]: significant reduction of blood glucose
- blood glucose 120 min [1, 9]: 5.50 ± 2.74 mM
- blood glucose 180 min [1, 9]: 9.95 ± 5.22 mM
- blood glucose 15 min [1, 10]: 24.4 mM (2×) and 23.6 mM and 30.3 mM and 29 mM and 28.4 mM
- blood glucose 30 min [1, 10]: 17.3 mM and 10.6 mM and 3.1 mM and 11.1 mM and 26.1 mM and 19.9 mM
- blood glucose 60 min [1, 10]: 9.6 mM and 5 mM and 7 mM and 5.2 mM and 13.3 mM and 5.8 mM
- blood glucose 120 min [1, 10]: 10.8 mM and 4.2 mM and 5.4 mM and 3 mM and 5.3 mM and 4.3 mM
- blood glucose 180 min [1, 10]: 19.3 mM and 9.4 mM and 6.1 mM and 5.8 mM and 6.7 mM and 12.4 mM
- blood glucose 240 min [1, 10]: 26.4 mM and 16.1 mM and 15.4 mM and 14.3 mM and 19.3 mM and 29.6 mM
- AUC(0-120 min) of blood glucose ([1]; Insulin glargine 10 U/kg, individual animal, in mM·min (unit assumed)): 3986 and 2308 and 2209 and 1991 and 3146 and 3254
- blood glucose 0 min [1, 8]: 27.77 mM
- blood glucose 0 min [1, 10]: 26.7 mM and 25.5 mM and 29 mM and 24.6 mM and 30.2 mM and 30.6 mM
- blood glucose after a single administration (in words) ([1]; STZ-induced hyperglycemic mice, single s.c. administration): significantly reduced blood glucose
- fasting blood glucose, Mean ([2]; group mean): 14.0 ± 2.43 mM and 14.0 mM
- fasting blood glucose ([2]; individual animal): 16.1 mM and 9.4 mM and 7.6 mM and 15.9 mM and 20.9 mM
- blood glucose based on the AUC during OGTT (in words) ([3]; Day 28, glucose 1 g/kg oral, Bei 0.1 mg/kg, IGlar 5 U/kg, or IGlar 5 U/kg & Bei 0.05 mg/kg multiple dosing): significantly reduced blood glucose based on the AUC
- OGTT blood glucose 0 min, MEAN ([3]; IGlar 5 U/kg, Day 28, group mean, 0 min): 13.98 mM
- OGTT blood glucose AUC, MEAN ([3]; IGlar 5 U/kg, Day 28, group mean, 0-120 min): 2390.25
- OGTT blood glucose 15 min, MEAN ([3]; IGlar 5 U/kg, Day 28, group mean, 15 min): 27.90 mM
- OGTT blood glucose 30 min, MEAN ([3]; IGlar 5 U/kg, Day 28, group mean, 30 min): 24.60 mM
- OGTT blood glucose 60 min, MEAN ([3]; IGlar 5 U/kg, Day 28, group mean, 60 min): 20.04 mM
- OGTT blood glucose 120 min, MEAN ([3]; IGlar 5 U/kg, Day 28, group mean, 120 min): 13.72 mM
- OGTT blood glucose 0 min ([3]; IGlar 5 U/kg, Day 28, individual animals, 0 min): 16.1 mM and 9.4 mM and 7.6 mM and 15.9 mM and 20.9 mM
- OGTT blood glucose AUC ([3]; IGlar 5 U/kg, Day 28, individual animals, 0-120 min): 2820.0 and 2205.0 and 2178.8 and 2133.0 and 2614.5
- OGTT blood glucose 15 min ([3]; IGlar 5 U/kg, Day 28, individual animals, 15 min): 33.3 mM and 25.4 mM and 24 mM and 25.9 mM and 30.9 mM
- OGTT blood glucose 30 min ([3]; IGlar 5 U/kg, Day 28, individual animals, 30 min): 27.9 mM and 23.4 mM and 23.1 mM and 23.3 mM and 25.3 mM
- OGTT blood glucose 60 min ([3]; IGlar 5 U/kg, Day 28, individual animals, 60 min): 23 mM and 18.6 mM and 19 mM and 16.4 mM and 23.2 mM
- OGTT blood glucose 120 min ([3]; IGlar 5 U/kg, Day 28, individual animals, 120 min): 17.9 mM and 13 mM and 12.9 mM and 12.1 mM and 12.7 mM
- body weight change Day 0 ([4]; group MEAN): 0.0 g
- body weight change Day 0 ([4]; individual animal): 0.0 g
- body weight change Day 4 ([4]; group MEAN): 0.0 g
- body weight change Day 7 ([4]; group MEAN): 0.7 g
- body weight change Day 8 ([4]; group MEAN): 0.7 g
- body weight change Day 10 ([4]; group MEAN): 0.8 g
- body weight change Day 12 ([4]; group MEAN): 0.7 g
- body weight change Day 14 ([4]; group MEAN): 1.2 g
- body weight change Day 16 ([4]; group MEAN): 1.3 g
- body weight change Day 18 ([4]; group MEAN): 1.6 g
- body weight change Day 20 ([4]; group MEAN): 1.7 g
- body weight change Day 22 ([4]; group MEAN): 1.7 g
- body weight change Day 24 ([4]; group MEAN): 1.8 g
- body weight change Day 26 ([4]; group MEAN): 2.4 g
- body weight change Day 28 ([4]; group MEAN): 2.4 ± 0.4 g and 2.4 g
- body weight change Day 4 ([4]; individual animal): -0.2 g and 0.0 g and 0.6 g and -0.1 g and 0.3 g and -0.4 g
- body weight change Day 7 ([4]; individual animal): 0.2 g and 0.7 g and 1.0 g (2×) and 0.8 g and 0.5 g
- body weight change Day 8 ([4]; individual animal): 0.0 g and 1.1 g and 0.6 g and 0.7 g and 1.3 g and 0.4 g
- body weight change Day 10 ([4]; individual animal): 0.1 g and 1.0 g (2×) and 0.7 g and 1.1 g and 0.8 g
- body weight change Day 12 ([4]; individual animal): 0.2 g and 0.9 g and 0.4 g and 0.8 g and 1.3 g and 0.6 g
- body weight change Day 14 ([4]; individual animal): 0.3 g and 1.3 g and 0.8 g (2×) and 2.0 g and 1.9 g
- body weight change Day 16 ([4]; individual animal): 0.7 g and 1.3 g and 1.7 g (2×) and 1.0 g
- body weight change Day 18 ([4]; individual animal): 0.9 g and 1.2 g and 2.4 g (2×) and 1.3 g
- body weight change Day 20 ([4]; individual animal): 1.0 g (2×) and 1.9 g and 2.3 g and 2.5 g
- body weight change Day 22 ([4]; individual animal): 1.2 g and 1.7 g and 2.1 g and 2.6 g and 1.0 g
- body weight change Day 24 ([4]; individual animal): 1.3 g and 1.9 g and 2.3 g and 2.7 g and 0.6 g
- body weight change Day 26 ([4]; individual animal): 1.5 g and 2.2 g and 3.3 g and 3.7 g and 1.2 g
- body weight change Day 28 ([4]; individual animal): 1.7 g and 2.3 g and 2.9 g and 3.8 g and 1.4 g
- weight gain on Day 28, IGlar alone vs combo (in words) ([4]; IGlar 5 U/kg vs IGlar 5 U/kg & Bei 0.05 mg/kg, 4-week treatment): induced weight gain significantly higher than the combinational therapy of beinaglutide and insulin glargine
